Test results taken from US11071300B2, “Pesticidally active pyrazole derivatives” (SYNGENTA PARTICIPATIONS AG, priority 2017, dated 2021).
Read-outs that look alike come from different tables or passages of the source.

Assays:
Type in all cases: in vivo
Plutella xylostella = Plutella xylostella (diamond back moth) artificial diet test; settings: 120 h, read-out: control (mortality and growth inhibition)
Method: Plutella xylostella (Diamond Back Moth):
(§1) 24-well microtiter plates with artificial diet were treated with aqueous test solutions prepared from 10′000 ppm DMSO stock solutions by pipetting. After drying, the plates were infested with L2 larvae (10 to 15 per well). The samples were assessed for mortality and growth inhibition in comparison to untreated samples 5 days after infestation.

Diabrotica Balteata = assay: Diabrotica balteata (corn root worm) maize sprout test; settings: 96 h, read-out: control (mortality and growth inhibition)
Method: Diabrotica Balteata, (Corn Root Worm)
as §1, with “Maize sprouts, placed on an agar layer in 24-well” for “24-well”, “plates” for “plates with artificial diet”, “spraying.” for “pipetting.”, “(6” for “(10”, “10” for “15”, “4” for “5”

Myzus persicae = Myzus persicae (green peach aphid) leaf disc test; settings: foliar, 144 h, read-out: control (mortality)
Method: Myzus persicae (Green Peach Aphid):
Sunflower leaf discs were placed on agar in a 24-well microtiter plate and sprayed with test solutions at an application rate of 200 ppm. After drying, the leaf discs were infested with an aphid population of mixed ages. After an incubation period of 6 DAT, samples were checked for mortality.

Spodoptera littoralis = Spodoptera littoralis (Egyptian cotton leaf worm) leaf disc test; settings: foliar, 72 h, application rate 200 ppm, cotton leaf discs sprayed, L1 larvae, 3 days after infestation, read-out: control (at least one of mortality, anti-feedant effect, growth inhibition)
Method: Spodoptera littoralis (Egyptian Cotton Leaf Worm)
Cotton leaf discs were placed on agar in 24-well microtiter plates and sprayed with aqueous test solutions prepared from 10′000 ppm DMSO stock solutions. After drying the leaf discs were infested with five L1 larvae. The samples were assessed for mortality, anti-feedant effect, and growth inhibition in comparison to untreated samples 3 days after infestation. Control of Spodoptera littoralis by a test sample is when at least one of mortality, anti-feedant effect, and growth inhibition is higher than the untreated sample.

Thrips tabaci = Thrips tabaci (onion thrips) leaf disc test; settings: foliar, 144 h, read-out: control (mortality)
Method: Thrips tabaci (Onion Thrips):
(§2) Sunflower leaf discs were placed on agar in 24-well microtiter plates and sprayed with aqueous test solutions prepared from 10′000 ppm DMSO stock solutions. After drying the leaf discs were infested with a thrips population of mixed ages. The samples were assessed for mortality 6 days after infestation.

Tetranychus urticae = Tetranychus urticae (two-spotted spider mite) leaf disc test; settings: foliar, 192 h, application rate 200 ppm, bean leaf discs sprayed, 8 days after infestation, read-out: control (mortality on mixed population, mobile stages)
Method: Tetranychus urticae (Two-Spotted Spider Mite):
as §2, with “Bean” for “Sunflower”, “discs” for “discs were placed”, “were” for “and”, “mite” for “thrips”, “on mixed population (mobile stages) 8” for “6”

Euschistus heros = Euschistus heros (neotropical brown stink bug) soybean leaf test; settings: 120 h, read-out: control (mortality and growth inhibition)
Method: Euschistus heros (Neotropical Brown Stink Bug):
Soybean leaves on agar in 24-well microtiter plates were sprayed with aqueous test solutions prepared from 10′000 ppm DMSO stock solutions. After drying the leaves were infested with N2 nymphs. The samples were assessed for mortality and growth inhibition in comparison to untreated samples 5 days after infestation.

[1] = application rate 200 ppm, artificial diet, L2 larvae, 5 days after infestation
[2] = application rate 200 ppm, maize sprouts sprayed, L2 larvae, 4 days after infestation
[3] = application rate 200 ppm, sunflower leaf discs sprayed, mixed ages, 6 days after infestation
[4] = application rate 200 ppm, sunflower leaf discs sprayed, mixed ages, 6 DAT

CCN(C(=O)c1cc(-c2cnn(-c3c(C(F)(F)F)c(OS(=O)(=O)C(F)(F)C(F)(F)C(F)(F)C(F)(F)F)nn3C)c2)cnc1Cl)C1CC1 [Compound 29, [5-[4-[6-chloro-5-[cyclopropyl(ethyl)carbamoyl]-3-pyridyl]pyrazol-1-yl]-1-methyl-4-(trifluoromethyl)pyrazol-3-yl] 1,1,2,2,3,3,4,4,4-nonafluorobutane-1-sulfonate]
≥ 80%: mortality at 200 ppm (Plutella xylostella) | mortality at 200 ppm (Diabrotica Balteata) | mortality at 200 ppm (Myzus persicae)

Cn1nc(OS(=O)(=O)C(F)(F)C(F)(F)C(F)(F)C(F)(F)F)c(C(F)(F)F)c1-n1cc(-c2cnc(Cl)c(C(=O)NC3CC3)c2)cn1 [Compound 27, [5-[4-[6-chloro-5-(cyclopropylcarbamoyl)-3-pyridyl]pyrazol-1-yl]-1-methyl-4-(trifluoromethyl)pyrazol-3-yl] 1,1,2,2,3,3,4,4,4-nonafluorobutane-1-sulfonate]
≥ 80%: percent control (mortality, anti-feedant effect or growth inhibition) at 200 ppm (Spodoptera littoralis) | mortality at 200 ppm (Plutella xylostella) | mortality at 200 ppm (Diabrotica Balteata) | mortality at 200 ppm (Thrips tabaci) | mortality at 200 ppm (Myzus persicae)

CN(C(=O)c1cc(-c2cnn(-c3c(C(F)(F)F)c(OS(=O)(=O)C(F)(C(F)(F)F)C(F)(F)F)nn3C)c2)cnc1Cl)C1CC1 [Compound 22, [5-[4-[6-chloro-5-[cyclopropyl(methyl)carbamoyl]-3-pyridyl]pyrazol-1-yl]-1-methyl-4-(trifluoromethyl)pyrazol-3-yl] 1,1,1,2,3,3,3-heptafluoropropane-2-sulfonate]
≥ 80%: percent control (mortality, anti-feedant effect or growth inhibition) at 200 ppm (Spodoptera littoralis) | mortality at 200 ppm (Plutella xylostella; [1]) | mortality at 200 ppm (Diabrotica Balteata; [2]) | mortality at 200 ppm (Thrips tabaci; [3]) | mortality at 200 ppm (Tetranychus urticae) | mortality at 200 ppm (Myzus persicae; [4])

CCN(C(=O)c1cc(-c2cnn(-c3c(C(F)(F)F)c(OS(=O)(=O)C(F)(F)C(F)(F)F)nn3C)c2)ccc1Cl)C1CC1 [Compound 14, [5-[4-[4-chloro-3-[cyclopropyl(ethyl)carbamoyl]phenyl]pyrazol-1-yl]-1-methyl-4-(trifluoromethyl)pyrazol-3-yl] 1,1,2,2,2-pentafluoroethanesulfonate]
≥ 80%: percent control (mortality, anti-feedant effect or growth inhibition) at 200 ppm (Spodoptera littoralis) | mortality at 200 ppm (Plutella xylostella; [1]) | mortality at 200 ppm (Diabrotica Balteata; [2]) | mortality at 200 ppm (Thrips tabaci; [3]) | mortality at 200 ppm (Myzus persicae; [4])

CN(C(=O)c1cc(-c2cnn(-c3c(C(F)(F)F)c(OS(=O)(=O)C(F)(F)C(F)(F)C(F)(F)C(F)(F)F)nn3C)c2)ccc1Cl)C1(C#N)CC1 [Compound 6, [5-[4-[4-chloro-3-[(1-cyanocyclopropyl)-methyl-carbamoyl]phenyl]pyrazol-1-yl]-1-methyl-4-(trifluoromethyl)pyrazol-3-yl] 1,1,2,2,3,3,4,4,4-nonafluorobutane-1-sulfonate]
≥ 80%: percent control (mortality, anti-feedant effect or growth inhibition) at 200 ppm (Spodoptera littoralis) | mortality at 200 ppm (Plutella xylostella) | mortality at 200 ppm (Diabrotica Balteata) | mortality at 200 ppm (Thrips tabaci) | mortality at 200 ppm (Euschistus heros)

CCN(C(=O)c1cc(-c2cnn(-c3c(C(F)(F)F)c(OS(=O)(=O)C(F)(C(F)(F)F)C(F)(F)F)nn3C)c2)cnc1Cl)C1CC1 [Compound 23, [5-[4-[6-chloro-5-[cyclopropyl(ethyl)carbamoyl]-3-pyridyl]pyrazol-1-yl]-1-methyl-4-(trifluoromethyl)pyrazol-3-yl] 1,1,1,2,3,3,3-heptafluoropropane-2-sulfonate]
≥ 80%: percent control (mortality, anti-feedant effect or growth inhibition) at 200 ppm (Spodoptera littoralis) | mortality at 200 ppm (Plutella xylostella; [1]) | mortality at 200 ppm (Diabrotica Balteata; [2]) | mortality at 200 ppm (Tetranychus urticae) | mortality at 200 ppm (Myzus persicae; [4])

Cn1nc(OS(=O)(=O)C(F)(C(F)(F)F)C(F)(F)F)c(C(F)(F)F)c1-n1cc(-c2ccc(Cl)c(C(=O)NC3(C(F)F)CC3)c2)cn1 [Compound 64, [5-[4-[4-chloro-3-[[1-(difluoromethyl)cyclopropyl]carbamoyl]phenyl]pyrazol-1-yl]-1-methyl-4-(trifluoromethyl)pyrazol-3-yl] 1,1,1,2,3,3,3-heptafluoropropane-2-sulfonate]
≥ 80%: percent control (mortality, anti-feedant effect or growth inhibition) at 200 ppm (Spodoptera littoralis) | mortality at 200 ppm (Plutella xylostella; [1]) | mortality at 200 ppm (Tetranychus urticae) | mortality at 200 ppm (Myzus persicae; [4])

CCN(C(=O)c1cc(-c2cc(-c3c(C(F)(F)F)c(OS(=O)(=O)C(F)(F)C(F)(F)C(F)(F)C(F)(F)F)nn3C)no2)ccc1Cl)C1CC1 [Compound 41, [5-[5-[4-chloro-3-[cyclopropyl(ethyl)carbamoyl]phenyl]isoxazol-3-yl]-1-methyl-4-(trifluoromethyl)pyrazol-3-yl] 1,1,2,2,3,3,4,4,4-nonafluorobutane-1-sulfonate]
≥ 80%: mortality at 200 ppm (Diabrotica Balteata) | mortality at 200 ppm (Myzus persicae)

CCN(C(=O)c1cc(-c2cnn(-c3c(C(F)(F)F)c(OS(=O)(=O)C(F)(F)C(F)(F)Cl)nn3C)c2)ccc1Cl)C1CC1 [Compound 10, [5-[4-[4-chloro-3-[cyclopropyl(ethyl)carbamoyl]phenyl]pyrazol-1-yl]-1-methyl-4-(trifluoromethyl)pyrazol-3-yl] 2-chloro-1,1,2,2-tetrafluoro-ethanesulfonate]
≥ 80%: percent control (mortality, anti-feedant effect or growth inhibition) at 200 ppm (Spodoptera littoralis) | mortality at 200 ppm (Plutella xylostella; [1]) | mortality at 200 ppm (Diabrotica Balteata; [2]) | mortality at 200 ppm (Thrips tabaci; [3]) | mortality at 200 ppm (Tetranychus urticae) | mortality at 200 ppm (Myzus persicae; [4])

CN(C(=O)c1cc(-c2cnn(-c3c(C(F)(F)F)c(OS(=O)(=O)C(F)(C(F)(F)F)C(F)(F)F)nn3C)c2)ccc1Cl)C1CC1 [Compound 17, [5-[4-[4-chloro-3-[cyclopropyl(methyl)carbamoyl]phenyl]pyrazol-1-yl]-1-methyl-4-(trifluoromethyl)pyrazol-3-yl] 1,1,1,2,3,3,3-heptafluoropropane-2-sulfonate]
≥ 80%: percent control (mortality, anti-feedant effect or growth inhibition) at 200 ppm (Spodoptera littoralis) | mortality at 200 ppm (Plutella xylostella; [1]) | mortality at 200 ppm (Diabrotica Balteata; [2]) | mortality at 200 ppm (Thrips tabaci; [3]) | mortality at 200 ppm (Tetranychus urticae) | mortality at 200 ppm (Myzus persicae; [4])

CCN(C(=O)c1cc(-c2cnn(-c3c(C(F)(F)F)c(OS(=O)(=O)C(F)(C(F)(F)F)C(F)(F)F)nn3C)c2)cnc1Cl)C1(C#N)CC1 [Compound 26, [5-[4-[6-chloro-5-[(1-cyanocyclopropyl)-ethyl-carbamoyl]-3-pyridyl]pyrazol-1-yl]-1-methyl-4-(trifluoromethyl)pyrazol-3-yl] 1,1,1,2,3,3,3-heptafluoropropane-2-sulfonate]
≥ 80%: percent control (mortality, anti-feedant effect or growth inhibition) at 200 ppm (Spodoptera littoralis) | mortality at 200 ppm (Plutella xylostella; [1]) | mortality at 200 ppm (Diabrotica Balteata; [2]) | mortality at 200 ppm (Thrips tabaci; [3]) | mortality at 200 ppm (Tetranychus urticae) | mortality at 200 ppm (Myzus persicae; [4])

CN(C(=O)c1cc(-c2cnn(-c3c(C(F)(F)F)c(OS(=O)(=O)C(F)(F)C(F)(F)Cl)nn3C)c2)ccc1Cl)C1(C#N)CC1 [Compound 19, [5-[4-[4-chloro-3-[(1-cyanocyclopropyl)-methyl-carbamoyl]phenyl]pyrazol-1-yl]-1-methyl-4-(trifluoromethyl)pyrazol-3-yl] 2-chloro-1,1,2,2-tetrafluoro-ethanesulfonate]
≥ 80%: percent control (mortality, anti-feedant effect or growth inhibition) at 200 ppm (Spodoptera littoralis) | mortality at 200 ppm (Plutella xylostella; [1]) | mortality at 200 ppm (Diabrotica Balteata; [2]) | mortality at 200 ppm (Thrips tabaci; [3]) | mortality at 200 ppm (Tetranychus urticae) | mortality at 200 ppm (Myzus persicae; [4])

Cn1nc(OS(=O)(=O)C(F)(F)C(F)(F)Cl)c(C(F)(F)F)c1-n1cc(-c2ccc(Cl)c(C(=O)NC3(C#N)CC3)c2)cn1 [Compound 8, [5-[4-[4-chloro-3-[(1-cyanocyclopropyl)carbamoyl]phenyl]pyrazol-1-yl]-1-methyl-4-(trifluoromethyl)pyrazol-3-yl] 2-chloro-1,1,2,2-tetrafluoro-ethanesulfonate]
≥ 80%: percent control (mortality, anti-feedant effect or growth inhibition) at 200 ppm (Spodoptera littoralis) | mortality at 200 ppm (Plutella xylostella; [1]) | mortality at 200 ppm (Diabrotica Balteata; [2]) | mortality at 200 ppm (Thrips tabaci; [3]) | mortality at 200 ppm (Tetranychus urticae) | mortality at 200 ppm (Myzus persicae; [4])
